Data as given in PubChem BioAssay AID651569 (Sanford-Burnham Center for Chemical Genomics, 2012).
The source made the active and inactive calls. No rule for the calls is given here.

Test system: luminescent cytotoxicity (cell viability) counter-screen
Assay: cytotoxicity of Gli-SUFU antagonist hits, dose response, cytotoxicity control for Gli-SUFU antagonist project, cell-based, luminescence, uHTS hits (AID 651569);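 also: compound exposure lasted overnight before the viability readout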

| Structure (SMILES) | IC50 |
| --- | --- |
| CCn1c(=NC(=O)CCS(=O)(=O)c2ccccc2)sc2cccc(OC)c21 | > 20 µM (inactive) |
| CCCCn1c(SCc2c(C)noc2C)nc2cc(S(N)(=O)=O)ccc21 | > 20 µM (inactive) |
| CCN(CC)S(=O)(=O)c1ccc(C)c(NC(=S)N2CCN(Cc3ccc4c(c3)OCO4)CC2)c1 | > 20 µM (inactive) |
| CCOc1ccc(-c2nc(CSCC(=O)NCC3CCCO3)c(C)o2)cc1 (configuration not stated) | > 20 µM (inactive) |
| CCCc1c(CC)c(=N)c2ccccc2n1C | > 20 µM (inactive) |
| O=C(c1ccc(C(F)(F)F)cc1)C1CCCN(Cc2ccncc2)C1 (configuration not stated) | 18.2 µM |
| CCc1cc(C(=O)NC2CCCN(Cc3ccccc3F)C2)n(C)n1 (configuration not stated) | > 20 µM (inactive) |
| O=S(=O)(c1ccc2c(c1)nc(COc1ccc(Cl)cc1)n2CC1CCCO1)N1CCOCC1 (configuration not stated) | > 20 µM (inactive) |
| CC1=CC(C)C2(COC(c3ccc[n+](C)c3)OC2)C(C)C1 (configuration not stated) | > 20 µM (inactive) |
| CCC(C)CCN1C(N(C)C)=NC[C@@H]1CC(C)C (some centres not stated) | > 20 µM (inactive) |
| CN1/C(=C\C=N\NC(=O)c2ccc(O)cc2)C(C)(C)c2ccccc21 | 4.84 µM |
| COc1cccc2nc3c(C(=O)NCCN(C)C)cccc3cc12 | 10.6 µM |
| O=C(Nc1cccc(C(F)(F)F)c1)C1CCN(S(=O)(=O)c2ccc(N3CCCC3=O)cc2)CC1 | > 20 µM (inactive) |
| CCCCNc1c(-c2ccc(OC)c(Sc3ccc(OC)cc3)c2)nc2ccccn12 | 12.9 µM |
| c1ccc2c(c1)OCC(CNc1ncnc3sccc13)O2 (configuration not stated) | > 20 µM (inactive) |
| COc1ccc(Nc2nc(N3CCOCC3)nc(N3CCOCC3)n2)c(OC)c1 | > 20 µM (inactive) |
| COc1cc(C(=O)NC2CCN(C)CC2)ccc1Nc1ncc2c(n1)N(Cc1ccccc1)CCC(=O)N2C | > 20 µM (inactive) |
| C[n+]1c2n(c3ccccc31)N=C(c1ccccc1)CS2 | > 20 µM (inactive) |
| COc1ccccc1-c1c(-c2ccc(O)cc2O)n[nH]c1C(F)(F)F | > 20 µM (inactive) |
| COc1ccc(CN2CCC(C(=O)Nc3ccc(Oc4cccnc4)cc3)CC2)c(C)c1C | 19.5 µM |
| C[N+]1(CC(=O)OC2CCCCCCCCCCC2)CCCC1 | > 20 µM (inactive) |
| Cc1ccc2c(c1)S/C(=C/c1ccc[n+](C)c1)N2CCO | > 20 µM (inactive) |
| CCCC(C)C(=O)Nc1nc(C)c(-c2csc(Nc3ccc(Cl)cc3)n2)s1 (configuration not stated) | > 20 µM (inactive) |
| CC(CC(=O)N1CCN(c2cccc(Cl)c2)CC1)S(=O)(=O)c1ccc2c(c1)NC(=O)CO2 (configuration not stated) | > 20 µM (inactive) |
| CCCCSc1nc2sc3c(c2c(=O)n1-c1ccc(C)cc1)CCN(C)C3 | > 20 µM (inactive) |

| Structure (SMILES) | IC50 |
| --- | --- |
| CC(Sc1nc2ccccc2c(=O)n1C)C(=O)NC1CCCCC1C (configuration not stated) | 16.7 µM |
| CC1CCN(c2c(NCc3ccc(C(=O)N4c5ccccc5CC4C)cc3)c(=O)c2=O)CC1 (configuration not stated) | > 20 µM (inactive) |
| CCNc1nc(CN2CCCCC2)nc2scc(-c3ccccc3)c12 | 15.6 µM |
| CCCc1nc(SCC(=O)Nc2nnc(CC)s2)c2c(=O)n(C)c(=O)n(C)c2n1 | > 20 µM (inactive) |
| COc1cc(NS(=O)(=O)c2ccc(C)cc2C)cc(OC)c1OC | 16 µM |
| CCCCOc1ncnc2c1[nH]c1ccc(F)cc12 | > 20 µM (inactive) |
| CC(=O)Nc1ccc(S(=O)(=O)N(Cc2ccccc2)C(C)C)cc1 | > 20 µM (inactive) |
| COc1ccc(CN(C)Cc2nc(Cc3cccc(F)c3)no2)c2cccnc12 | > 20 µM (inactive) |
| Cc1ccc(OCCOC(=O)c2cc(S(=O)(=O)N3CCCCC3)ccc2N2CCOCC2)cc1 | > 20 µM (inactive) |
| CCCCCCCN1C2=NCCCN2c2ccccc21 | > 20 µM (inactive) |
| c1ccc(Cn2c(-c3ccccc3)c[n+]3c2SCCC3)cc1 | > 20 µM (inactive) |
| CC(C)Cc1ccc(C(C)C(=O)Nc2cccnc2)cc1 (configuration not stated) | > 20 µM (inactive) |
| CCOC(=O)C1CCCN(S(=O)(=O)c2ccc(S(=O)(=O)N(CC)CC)cc2)C1 (configuration not stated) | > 20 µM (inactive) |
| COC(=O)C1=C(c2cc3ccccc3o2)C[C@@H]2CC[C@H]1N2C(=O)N1CCC(C)CC1 | > 20 µM (inactive) |
| CCc1c(C)nc2ncnn2c1N1CCN(S(=O)(=O)c2ccc(OC)cc2)CC1 | > 20 µM (inactive) |
| CCCN(CCC)CCNC(=O)c1cc2c(=O)n(C)c3ccccc3c2n1C | > 20 µM (inactive) |
| CC1C(OC(=O)CCC(=O)NC(C)(C)CO)O[C@H]2OC3(C)CC[C@H]4[C@H](C)CCC1C24OO3 (some centres not stated) | > 20 µM (inactive) |
| CNc1ccccc1C(C)(C)c1cc(-c2cccc(Br)c2)no1 | > 20 µM (inactive) |
| Cc1nc2ccccc2n1CC(=O)NC(C)C1CC2CCC1C2 (configuration not stated) | > 20 µM (inactive) |
| COc1ccc(CNCC(O)COc2cccc3c2OC(C)(C)C3)cc1 (configuration not stated) | > 20 µM (inactive) |
| O=C(Nc1cc(N2CCCCC2)ncn1)c1ccccc1 | > 20 µM (inactive) |
| Clc1ccc(-c2cn(-c3ccccc3)c3[n+]2CCS3)cc1 | > 20 µM (inactive) |
| Cc1ccsc1CNc1ncnc2ccc(-c3c(C)noc3C)cc12 | > 20 µM (inactive) |
| CC(NC(=O)c1cc2c(=O)n3ccccc3nc2n(CC2CCCO2)c1=N)c1ccccc1 (configuration not stated) | > 20 µM (inactive) |
| Cc1sc2ncnc(NCC(C)(C)N3CCOCC3)c2c1C | > 20 µM (inactive) |

| Structure (SMILES) | IC50 |
| --- | --- |
| Cc1cc(C)nc(SCC(=O)Nc2ccc(N3CCOCC3)c(Cl)c2)n1 | > 20 µM (inactive) |
| COc1ccc(-c2nn(-c3ccccc3)cc2/C=N/NC(=O)c2ccc(Br)o2)cc1 | > 20 µM (inactive) |
| CC1CCC(NC(=O)c2cccc(S(=O)(=O)N3CCN(c4ccccc4)CC3)c2)CC1 (configuration not stated) | > 20 µM (inactive) |
| Clc1ccc(-c2cn(-c3ccc(Cl)cc3)c3[n+]2CCCCC3)cc1 | > 20 µM (inactive) |
| COc1ccc(NS(=O)(=O)c2cccc(NC(=O)c3ccc(S(=O)(=O)N4CCCCCC4)cc3)c2)cc1 | > 20 µM (inactive) |
| Cc1ccc(O)c(NC(=O)COc2cc(C)ccc2C)c1 | > 20 µM (inactive) |
| Cc1cc(C)c(C)c(S(=O)(=O)N2CCN(c3ncnc4ccccc34)CC2)c1C | > 20 µM (inactive) |
| COc1ccccc1-n1c(-c2ccccc2)c[n+]2c1CCc1ccccc1-2 | > 20 µM (inactive) |
| COc1ccc(-c2c[n+](CC(=O)c3ccccc3)c3n2CCCCC3)cc1 | > 20 µM (inactive) |
| Cc1sc2ncnc(N3CCN(S(=O)(=O)c4ccc(C(C)(C)C)cc4)CC3)c2c1C | > 20 µM (inactive) |
| Cc1nc2ccccc2c2c1CC(C(C)(Cl)Br)O2 (configuration not stated) | > 20 µM (inactive) |
| Cc1cc(C)c(C(N)=O)c(SCC(=O)c2cc(C)n(-c3cc(C)on3)c2C)n1 | > 20 µM (inactive) |
| COc1ccc(-n2cc(-c3ccc(OC(F)F)cc3)[n+]3c2CCCCC3)cc1 | > 20 µM (inactive) |
| C#CC[N+](C)(C)CCCCCCCCCCCC | > 20 µM (inactive) |
| CCn1cc[n+](C)c1P(c1ccccc1)c1ccccc1 | > 20 µM (inactive) |
| CCCCCCCNC1=CC(=O)CC(c2ccccc2)C1 (configuration not stated) | 16.5 µM |
| C=CCNc1nc2c(c(=O)n(C)c(=O)n2C)n1Cc1ccc(F)cc1 | > 20 µM (inactive) |
| CCCCOc1ccc(N2C(N)=NC(N)=NC23CCCCC3)cc1 | > 20 µM (inactive) |
| N=c1c(-c2nc3ccccc3[nH]2)cc(C(=O)c2ccco2)nn1-c1ccccc1 | > 20 µM (inactive) |
| C/C(=N\Nc1ccc(Cl)nn1)c1ccccc1O | > 20 µM (inactive) |
| O=C(c1cc2nc(-c3ccc(F)cc3)cc(C(F)(F)F)n2n1)N1CCCCC1c1cccnc1 (configuration not stated) | > 20 µM (inactive) |
| C=C(C)CSc1nc2sc3c(c2c(=O)n1C1CCCCC1)CCN(C)C3 | > 20 µM (inactive) |
| Cc1cc(C)nc(/N=C(\N)Nc2ccccc2-c2ccccc2)n1 | 18.4 µM |
| CC(C)(C)[C@H]1COC(=O)[C@H](NC(=O)OCC2c3ccccc3-c3ccccc32)C/C=C\C[C@@H](CC(=O)N(CCO)Cc2ccccc2)C(=O)N1 | > 20 µM (inactive) |
| CCOC(=O)CC1CCCCN1C(=O)c1cc(COc2cccc3cnccc23)on1 (configuration not stated) | > 20 µM (inactive) |

| Structure (SMILES) | IC50 |
| --- | --- |
| CCCn1c2c(c(=N)c3c1CCC3)CCCC2 | > 20 µM (inactive) |
| C(#Cc1ccccc1)C[N+]1(CC#Cc2cccc3ccccc23)CCCC1 | > 20 µM (inactive) |
| CCOC(=O)N1CCN(C(=O)c2cc(COc3ccc4ncccc4c3)on2)CC1 | > 20 µM (inactive) |
| CCc1nc(N)nc(N)c1-c1ccc(N(C)Cc2ccccc2)c([N+](=O)[O-])c1 | 18.4 µM |
| O=C(C[C@H]1C/C=C\C[C@H](NC(=O)OCC2c3ccccc3-c3ccccc32)C(=O)OC[C@@H]2CCCN2C1=O)N[C@H](CO)Cc1ccccc1 | > 20 µM (inactive) |
| Cc1nn(C)c(C(=O)NCc2ccc(Cl)cc2)c1Cl | > 20 µM (inactive) |
| COc1nnc(-c2ccc(N3CCCCC3)c(N)c2)c2ccccc12 | > 20 µM (inactive) |
| Cc1ccc(-c2csc(NC(=O)c3c(C)noc3C)n2)s1 | > 20 µM (inactive) |
| Cn1c(=O)c2c(nc(NCc3ccco3)n2Cc2ccc(Cl)cc2Cl)n(C)c1=O | > 20 µM (inactive) |
| CC(=O)c1c(C)[nH]c(C(=O)OCC(=O)Nc2cccc(S(=O)(=O)N3CCCC3)c2)c1C | > 20 µM (inactive) |
| CCOC(=O)CSc1c(-c2cccs2)[nH]c2ccccc12 | > 20 µM (inactive) |
| Cc1nnsc1C(=O)Nc1ccc(S(=O)(=O)N2CCC(C)CC2)cc1 | > 20 µM (inactive) |
| O=C(c1ccc(Cl)cc1)N1CCN(c2ccnc3cc(Cl)ccc23)CC1 | > 20 µM (inactive) |
| CC(C)Cn1c(N)c(C(=O)COC(=O)C2Cc3ccccc3CN2S(C)(=O)=O)c(=O)n(C)c1=O (configuration not stated) | > 20 µM (inactive) |
| CC(=O)c1c(C)[nH]c(C(=O)OCC(=O)Nc2sc3c(c2C#N)CCCC3)c1C | > 20 µM (inactive) |
| COc1ccc(N2CCN(c3ncnc4c3[nH]c3ccccc34)CC2)cc1 | > 20 µM (inactive) |
| CC(C)(C)c1ccc(CN2C3=NCCCN3c3ccccc32)cc1 | 19.1 µM |
| COCCNc1nc2c(c(=O)n(C)c(=O)n2C)n1Cc1cccc(C)c1 | > 20 µM (inactive) |
| O=c1c2ccccc2nc2n1C(CSCc1cccc(C(F)(F)F)c1)CS2 (configuration not stated) | > 20 µM (inactive) |
| O=C(Cn1cnc2ccccc21)Nc1cccc(S(=O)(=O)N2CCCC2)c1 | > 20 µM (inactive) |
| CC1CCN(Cc2c(C(=O)N/N=C/c3ccccc3O)nnn2-c2nonc2N)CC1 | > 20 µM (inactive) |
| Cc1nc2cc(N3CCN(C)CC3)c(NC(=O)Cc3ccccc3)cc2c(=O)n1Cc1ccccc1 | > 20 µM (inactive) |
